ChEMBL document CHEMBL1201862, “PubChem BioAssay data set” (2004)
Calls of active or inactive are those of the source.

Legend:
[1] = Luminescent dose response cell-based high throughput screening assay for inhibitors of the Janus kinase 2 mutant JAK2V617F. [Related pubchem assays: 1446 (Primary screen.), 1521 (Confirmation assay.), 1486 (Counter screen.)]; type: functional
[2] = system: Vero; assay: cells; type: functional, cell-based; conditions: Chlorocebus sabaeus
[3] = system: Vero; assay: cells; type: functional; conditions: Chlorocebus sabaeus
[4] = biological target: T1, Runt-related transcription factor 1/Core-binding factor subunit beta (Homo sapiens, UniProt Q01196+Q13951); assay: inhibitors of RUNX1 Runt–CBFb-SMMHC binding, primary screen, biochemical, FRET, Cerulean-Runt, Venus-CBFb-SMMHC, uHTS (AID 1434); type: protein assay;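 further: partner is the CBFb-SMMHC leukemia fusion protein rather than wild-type CBFb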
T1 sequence (Q01196 whole entry, the tested form may be a part): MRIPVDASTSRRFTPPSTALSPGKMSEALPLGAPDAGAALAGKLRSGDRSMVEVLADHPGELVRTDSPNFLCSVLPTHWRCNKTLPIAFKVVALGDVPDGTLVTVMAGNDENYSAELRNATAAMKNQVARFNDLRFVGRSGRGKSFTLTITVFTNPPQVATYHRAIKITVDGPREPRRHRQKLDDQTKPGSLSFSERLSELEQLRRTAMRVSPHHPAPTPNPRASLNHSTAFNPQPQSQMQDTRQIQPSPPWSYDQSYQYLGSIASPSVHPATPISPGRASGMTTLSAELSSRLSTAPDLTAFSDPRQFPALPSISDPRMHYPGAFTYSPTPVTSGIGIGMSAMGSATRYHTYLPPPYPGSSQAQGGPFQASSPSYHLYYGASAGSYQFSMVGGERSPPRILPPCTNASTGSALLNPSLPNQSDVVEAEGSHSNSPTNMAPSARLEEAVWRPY
T1 sequence (Q13951 whole entry, the tested form may be a part): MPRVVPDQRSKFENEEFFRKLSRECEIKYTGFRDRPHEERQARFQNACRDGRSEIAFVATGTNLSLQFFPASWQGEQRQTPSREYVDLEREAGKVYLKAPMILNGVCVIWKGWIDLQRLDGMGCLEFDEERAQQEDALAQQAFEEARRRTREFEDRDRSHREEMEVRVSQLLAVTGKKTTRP

[5] = biological target: T1, Runt-related transcription factor 1/Core-binding factor subunit beta; assay: inhibitors of RUNX1 Runt–CBFb-SMMHC binding, biochemical, TR-FRET (AID 1438); type: protein assay
[6] = biological target: Trypsin (Sus scrofa, UniProt P00761); assay: porcine trypsin inhibitors, dose response, selectivity assay for Rce1 protease inhibitor project, biochemical, quenched peptide fluorescence, cherry-pick (AID 488789)
Chain of Trypsin (P00761 whole entry): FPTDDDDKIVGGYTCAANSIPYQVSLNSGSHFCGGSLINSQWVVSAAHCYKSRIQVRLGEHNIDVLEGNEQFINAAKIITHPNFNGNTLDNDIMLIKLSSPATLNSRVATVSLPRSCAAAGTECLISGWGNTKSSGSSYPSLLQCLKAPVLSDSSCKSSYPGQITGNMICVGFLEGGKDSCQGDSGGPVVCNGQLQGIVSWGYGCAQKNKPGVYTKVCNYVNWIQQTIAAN

[7] = biological target: CAAX prenyl protease 2 (Homo sapiens, UniProt Q9Y256); assay: human Rce1 protease inhibitors, dose response, biochemical, yeast membranes, quenched-peptide fluorescence, cherry-pick (AID 588849)
Chain of CAAX prenyl protease 2 (Q9Y256 whole entry): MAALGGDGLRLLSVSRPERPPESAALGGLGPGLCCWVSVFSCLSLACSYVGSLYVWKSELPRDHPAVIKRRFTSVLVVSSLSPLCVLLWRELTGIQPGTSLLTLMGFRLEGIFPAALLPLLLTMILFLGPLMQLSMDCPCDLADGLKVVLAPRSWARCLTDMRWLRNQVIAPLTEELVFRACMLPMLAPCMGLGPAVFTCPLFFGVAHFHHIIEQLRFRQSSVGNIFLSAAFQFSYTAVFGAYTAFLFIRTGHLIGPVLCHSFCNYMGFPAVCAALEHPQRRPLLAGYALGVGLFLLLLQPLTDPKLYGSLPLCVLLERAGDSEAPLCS

[8] = system: HEK293; assay: NOD1 signaling inhibitors, primary screen, cell-based, luminescence, uHTS (AID 1578); type: functional; conditions: Homo sapiens
[9] = system: HEK293; assay: cells; type: functional, cell-based; conditions: Homo sapiens
[10] = system: HEK293; assay: cells; type: functional, cell-based; conditions: Homo sapiens; remark: listed apart in the source
[11] = system: HEK293; assay: NOD2 signaling inhibitors in MDP-stimulated cells, cell-based, uHTS, luminescence (AID 2001); type: functional; conditions: Homo sapiens
[12] = biological target: Tumor necrosis factor (Homo sapiens, UniProt P01375); assay: TNFa-triggered NF-kB activation inhibitors, SAR follow-up, cell-based, revised (AID 2337); type: functional
Chain of Tumor necrosis factor (P01375 whole entry, the tested form may be a part): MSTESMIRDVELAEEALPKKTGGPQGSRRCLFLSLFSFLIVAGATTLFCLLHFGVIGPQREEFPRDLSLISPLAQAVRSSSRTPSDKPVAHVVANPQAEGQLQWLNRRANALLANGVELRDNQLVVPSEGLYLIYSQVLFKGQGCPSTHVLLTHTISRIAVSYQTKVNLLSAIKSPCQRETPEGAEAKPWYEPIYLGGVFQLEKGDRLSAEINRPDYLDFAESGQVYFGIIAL

[13] = biological target: Nucleotide-binding oligomerization domain-containing protein 1 (Homo sapiens, UniProt Q9Y239); assay: NOD1 signaling inhibitors, SAR follow-up, revised (AID 2333); type: functional
Chain of Nucleotide-binding oligomerization domain-containing protein 1 (Q9Y239 whole entry, the tested form may be a part): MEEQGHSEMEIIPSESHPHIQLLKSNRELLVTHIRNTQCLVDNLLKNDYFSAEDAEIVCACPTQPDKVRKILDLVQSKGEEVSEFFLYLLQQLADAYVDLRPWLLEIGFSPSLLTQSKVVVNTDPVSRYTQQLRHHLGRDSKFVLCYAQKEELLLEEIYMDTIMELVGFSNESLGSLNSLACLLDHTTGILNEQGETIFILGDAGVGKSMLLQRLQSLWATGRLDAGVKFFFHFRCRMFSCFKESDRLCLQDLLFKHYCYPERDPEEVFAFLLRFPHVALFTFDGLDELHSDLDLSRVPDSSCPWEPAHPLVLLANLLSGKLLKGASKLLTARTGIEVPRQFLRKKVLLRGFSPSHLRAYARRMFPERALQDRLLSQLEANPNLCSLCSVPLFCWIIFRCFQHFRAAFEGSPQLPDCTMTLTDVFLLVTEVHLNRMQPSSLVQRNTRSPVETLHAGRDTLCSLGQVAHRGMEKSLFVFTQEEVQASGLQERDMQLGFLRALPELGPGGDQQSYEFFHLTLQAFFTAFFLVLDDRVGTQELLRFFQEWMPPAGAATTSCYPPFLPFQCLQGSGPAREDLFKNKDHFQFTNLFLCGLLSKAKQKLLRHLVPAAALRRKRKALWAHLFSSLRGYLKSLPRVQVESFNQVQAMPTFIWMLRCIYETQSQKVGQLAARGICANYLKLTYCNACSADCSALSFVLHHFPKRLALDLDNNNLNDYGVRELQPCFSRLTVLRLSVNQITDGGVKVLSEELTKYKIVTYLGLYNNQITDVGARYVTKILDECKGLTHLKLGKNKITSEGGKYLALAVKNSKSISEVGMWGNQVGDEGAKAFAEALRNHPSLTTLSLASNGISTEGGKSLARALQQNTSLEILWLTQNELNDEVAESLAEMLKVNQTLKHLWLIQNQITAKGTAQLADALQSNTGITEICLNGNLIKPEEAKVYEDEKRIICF

[14] = biological target: T2, COUP transcription factor 2 (Homo sapiens, UniProt P24468); assay: Luminescence-based cell-based high throughput dose response assay to identify inhibitors of COUP-TFII (NR2F2).; type: functional;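 further: HEK293 cells transiently cotransfected with COUP-TFII expression vector and reporter; luciferase reporter luminescence driven by COUP-TFII from the pX2-168 reporter plasmid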
T2 sequence (P24468 whole entry): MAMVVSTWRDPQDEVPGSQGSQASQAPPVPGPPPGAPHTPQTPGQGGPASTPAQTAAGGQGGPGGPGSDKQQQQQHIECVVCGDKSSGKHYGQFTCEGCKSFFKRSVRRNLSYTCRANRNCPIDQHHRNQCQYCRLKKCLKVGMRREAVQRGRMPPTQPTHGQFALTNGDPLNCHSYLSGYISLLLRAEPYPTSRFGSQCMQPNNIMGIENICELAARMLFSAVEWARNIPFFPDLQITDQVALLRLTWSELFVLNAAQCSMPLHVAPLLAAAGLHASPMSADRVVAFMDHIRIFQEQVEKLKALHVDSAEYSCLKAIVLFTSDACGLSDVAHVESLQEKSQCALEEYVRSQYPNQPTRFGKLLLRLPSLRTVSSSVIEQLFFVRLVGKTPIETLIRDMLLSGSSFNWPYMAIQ

[15] = system: HEK293; assay: cells; conditions: Homo sapiens
[16] = biological target: T3, Hexokinase-1 (Homo sapiens, UniProt P19367); assay: HK1 enzyme inhibition by HKDC1 hits, SAR follow-up, selectivity assay for HKDC1 inhibitor project, biochemical, set 2, resazurin fluorescence coupled readout (AID 588356); type: functional
T3 sequence (P19367 whole entry): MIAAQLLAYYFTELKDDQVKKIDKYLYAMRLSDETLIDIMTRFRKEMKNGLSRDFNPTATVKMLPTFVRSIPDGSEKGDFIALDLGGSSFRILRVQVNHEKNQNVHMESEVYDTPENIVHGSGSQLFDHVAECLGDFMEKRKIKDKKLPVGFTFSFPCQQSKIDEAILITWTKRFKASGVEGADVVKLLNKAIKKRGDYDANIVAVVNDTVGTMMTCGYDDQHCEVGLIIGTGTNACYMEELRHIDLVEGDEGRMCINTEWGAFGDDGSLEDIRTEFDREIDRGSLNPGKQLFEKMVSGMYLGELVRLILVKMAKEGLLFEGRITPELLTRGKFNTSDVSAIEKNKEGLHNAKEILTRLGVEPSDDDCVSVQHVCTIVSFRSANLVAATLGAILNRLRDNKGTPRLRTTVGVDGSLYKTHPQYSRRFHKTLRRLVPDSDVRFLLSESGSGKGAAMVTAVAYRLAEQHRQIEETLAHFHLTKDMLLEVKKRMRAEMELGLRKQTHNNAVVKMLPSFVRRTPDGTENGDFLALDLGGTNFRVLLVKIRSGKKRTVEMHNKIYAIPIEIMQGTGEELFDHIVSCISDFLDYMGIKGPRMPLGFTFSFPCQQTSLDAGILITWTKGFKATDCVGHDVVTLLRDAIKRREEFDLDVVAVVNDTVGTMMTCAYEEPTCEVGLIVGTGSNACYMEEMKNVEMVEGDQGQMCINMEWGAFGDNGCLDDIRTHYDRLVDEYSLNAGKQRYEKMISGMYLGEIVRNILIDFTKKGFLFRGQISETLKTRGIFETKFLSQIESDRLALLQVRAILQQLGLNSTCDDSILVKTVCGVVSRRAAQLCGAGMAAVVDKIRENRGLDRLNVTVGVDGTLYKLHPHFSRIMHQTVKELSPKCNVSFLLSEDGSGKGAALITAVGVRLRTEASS

[17] = biological target: T4, Hexokinase HKDC1 (Homo sapiens, UniProt Q2TB90); assay: HKDC1 hexokinase inhibitors, SAR follow-up, biochemical, set 2 (AID 588355); type: functional
T4 sequence (Q2TB90 whole entry): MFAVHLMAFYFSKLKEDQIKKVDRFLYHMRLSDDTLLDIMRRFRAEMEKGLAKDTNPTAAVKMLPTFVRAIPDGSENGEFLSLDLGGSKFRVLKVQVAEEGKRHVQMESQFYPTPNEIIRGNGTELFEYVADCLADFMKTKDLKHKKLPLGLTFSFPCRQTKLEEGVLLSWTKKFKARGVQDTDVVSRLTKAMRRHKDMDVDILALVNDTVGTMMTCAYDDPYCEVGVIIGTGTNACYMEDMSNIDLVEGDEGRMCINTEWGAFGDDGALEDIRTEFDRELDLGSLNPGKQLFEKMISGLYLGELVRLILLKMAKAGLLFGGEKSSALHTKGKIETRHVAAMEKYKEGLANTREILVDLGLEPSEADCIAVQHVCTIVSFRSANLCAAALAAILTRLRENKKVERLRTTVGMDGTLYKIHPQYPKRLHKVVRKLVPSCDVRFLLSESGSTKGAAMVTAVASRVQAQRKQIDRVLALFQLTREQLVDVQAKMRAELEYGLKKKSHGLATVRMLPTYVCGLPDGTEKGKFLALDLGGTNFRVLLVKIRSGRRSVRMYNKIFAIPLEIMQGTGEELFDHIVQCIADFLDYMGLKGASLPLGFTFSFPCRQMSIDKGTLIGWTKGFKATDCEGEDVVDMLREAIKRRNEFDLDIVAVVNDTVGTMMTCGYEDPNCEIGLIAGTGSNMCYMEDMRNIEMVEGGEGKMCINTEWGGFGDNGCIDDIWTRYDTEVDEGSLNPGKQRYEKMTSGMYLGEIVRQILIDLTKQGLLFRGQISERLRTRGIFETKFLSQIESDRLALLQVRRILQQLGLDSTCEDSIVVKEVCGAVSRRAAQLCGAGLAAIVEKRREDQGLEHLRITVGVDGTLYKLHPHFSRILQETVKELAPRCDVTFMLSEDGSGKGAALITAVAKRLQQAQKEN

[18] = biological target: Cytochrome P450 2C19 (Homo sapiens, UniProt P33261); assay: Cytochrome panel assay with activity outcomes. Panel member name: p450-cyp2c19 Compounds with AC50 equal or less than 10 uM are considered active; type: functional; conditions: read-out: AC50
Chain of Cytochrome P450 2C19 (P33261 whole entry): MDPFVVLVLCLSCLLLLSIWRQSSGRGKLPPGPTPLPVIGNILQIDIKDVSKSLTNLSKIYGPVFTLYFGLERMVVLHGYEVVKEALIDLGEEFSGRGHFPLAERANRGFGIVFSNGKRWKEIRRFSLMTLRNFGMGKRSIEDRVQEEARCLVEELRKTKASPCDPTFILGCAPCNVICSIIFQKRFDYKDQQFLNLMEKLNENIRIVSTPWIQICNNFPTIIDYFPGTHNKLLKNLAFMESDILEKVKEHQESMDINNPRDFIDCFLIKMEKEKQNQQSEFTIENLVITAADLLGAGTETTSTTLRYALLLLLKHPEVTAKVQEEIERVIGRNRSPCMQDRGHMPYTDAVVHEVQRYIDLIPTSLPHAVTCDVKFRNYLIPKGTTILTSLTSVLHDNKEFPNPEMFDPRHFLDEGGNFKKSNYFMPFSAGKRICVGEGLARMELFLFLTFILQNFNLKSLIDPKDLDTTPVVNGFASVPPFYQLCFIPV

[19] = biological target: Dual specificity protein kinase CLK1 (Homo sapiens, UniProt P49759); assay: CLK1 kinase inhibitors, off-target check, dose response, selectivity assay for Dyrk1A inhibitor project, biochemical, cherry-picked samples (AID 588811)
[20] = biological target: Cytochrome P450 2C9 (Homo sapiens, UniProt P11712)
Chain of Cytochrome P450 2C9 (P11712 whole entry): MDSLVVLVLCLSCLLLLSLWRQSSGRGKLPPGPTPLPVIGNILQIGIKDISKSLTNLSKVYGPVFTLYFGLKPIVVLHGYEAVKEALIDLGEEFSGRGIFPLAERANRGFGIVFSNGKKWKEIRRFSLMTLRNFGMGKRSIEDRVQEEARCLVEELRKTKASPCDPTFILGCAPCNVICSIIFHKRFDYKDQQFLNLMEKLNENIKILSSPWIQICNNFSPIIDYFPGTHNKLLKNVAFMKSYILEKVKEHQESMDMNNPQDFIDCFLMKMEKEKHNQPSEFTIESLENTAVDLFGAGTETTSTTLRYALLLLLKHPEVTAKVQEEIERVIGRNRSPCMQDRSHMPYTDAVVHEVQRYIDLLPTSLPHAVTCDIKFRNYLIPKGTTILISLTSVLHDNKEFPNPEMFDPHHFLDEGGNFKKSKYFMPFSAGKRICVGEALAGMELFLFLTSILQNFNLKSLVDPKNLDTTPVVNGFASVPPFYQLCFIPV

[21] = system: NIH3T3; assay: cytotoxicity in NIH-3T3 fibroblasts, dose response, cytotoxicity control for antifungal drug resistance project, cell-based, Alamar Blue, fluconazole, dry powder (AID 488809); type: functional; conditions: Mus musculus
[22] = biological target: Dual specificity tyrosine-phosphorylation-regulated kinase 1A (Rattus norvegicus, UniProt Q63470); type: biochemical, Homo sapiens
[23] = biological target: Voltage-gated inwardly rectifying potassium channel KCNH2 (Homo sapiens, UniProt Q12809); conditions: Potency;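 further: confirmatory quantitative high-throughput screen measuring inhibition of hERG channel activity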
[24] = biological target: Cytochrome P450 3A4 (Homo sapiens, UniProt P08684);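 further: CYP3A4 tested as one member of a cytochrome P450 panel screen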
Chain of Cytochrome P450 3A4 (P08684 whole entry): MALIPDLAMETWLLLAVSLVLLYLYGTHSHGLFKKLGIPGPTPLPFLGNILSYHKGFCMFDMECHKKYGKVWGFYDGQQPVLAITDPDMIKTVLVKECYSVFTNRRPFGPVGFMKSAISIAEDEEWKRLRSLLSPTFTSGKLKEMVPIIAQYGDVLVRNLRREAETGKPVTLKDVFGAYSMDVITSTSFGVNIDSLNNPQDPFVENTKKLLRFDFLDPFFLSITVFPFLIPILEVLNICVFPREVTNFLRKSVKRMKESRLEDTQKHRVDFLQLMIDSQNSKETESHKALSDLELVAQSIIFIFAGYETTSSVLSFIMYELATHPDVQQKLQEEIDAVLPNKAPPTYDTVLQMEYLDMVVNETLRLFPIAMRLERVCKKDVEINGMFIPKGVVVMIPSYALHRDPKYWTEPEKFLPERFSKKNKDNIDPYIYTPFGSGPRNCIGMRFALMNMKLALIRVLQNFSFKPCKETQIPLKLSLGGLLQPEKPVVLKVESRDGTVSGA

[25] = biological target: Galanin receptor type 2 (Homo sapiens, UniProt O43603); assay: Dose Response cell-based high-throughput screening assay to identify antagonists of galanin receptor 2 (GALR2). [Related pubchem assays: 828, 866 ]; type: functional
Chain of Galanin receptor type 2 (O43603 whole entry): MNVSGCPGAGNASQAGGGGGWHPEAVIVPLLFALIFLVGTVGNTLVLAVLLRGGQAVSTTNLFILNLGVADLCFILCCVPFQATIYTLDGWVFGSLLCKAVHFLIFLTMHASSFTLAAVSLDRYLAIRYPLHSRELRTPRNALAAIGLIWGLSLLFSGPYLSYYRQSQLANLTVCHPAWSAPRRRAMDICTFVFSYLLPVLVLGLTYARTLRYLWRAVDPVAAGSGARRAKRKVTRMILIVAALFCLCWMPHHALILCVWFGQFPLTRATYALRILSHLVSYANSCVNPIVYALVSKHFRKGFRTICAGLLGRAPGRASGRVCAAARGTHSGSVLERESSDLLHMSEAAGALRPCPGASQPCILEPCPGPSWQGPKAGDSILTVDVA

[26] = Luminescence Cell-Based Dose Retest to Confirm Inhibitors of Cancer Stem Cells. [Related pubchem assays (depositor defined):AID2717, AID2721]; type: functional; conditions: Homo sapiens
[27] = cytotoxicity in HMLE control line with eGFP shRNA, dose response, counter-screen for HMLE_sh_ECad selective toxicity project, cell-based, HMLE_sh_eGFP, luminescence (AID 463074); type: functional, Homo sapiens;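 further: HMLE human mammary epithelial cells expressing control shRNA against eGFP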
[28] = system: INS1; assay: beta cell apoptosis inhibitors, cytokine rescue, dose response, luminescence, retest (AID 449756); type: functional, cell-based; conditions: Rattus norvegicus, INS1;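 further: cell death triggered by IL-1 beta plus TNF-alpha plus IFN-gamma mixture; protective hits raise ATP signal compared with cytokine alone wells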
[29] = biological target: Protein Wnt-3a (Mus musculus, UniProt P27467); assay: Wnt3a-driven reporter signaling inhibition, dose response, selectivity assay for Gli-SUFU antagonist project, Wnt-LIGHT cells, luminescence (AID 651570); type: functional; conditions: read-out: IC50_Mean;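 further: Wnt-LIGHT reporter cells stimulated with conditioned medium from Wnt3a-producing cells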
Chain of Protein Wnt-3a (P27467 whole entry): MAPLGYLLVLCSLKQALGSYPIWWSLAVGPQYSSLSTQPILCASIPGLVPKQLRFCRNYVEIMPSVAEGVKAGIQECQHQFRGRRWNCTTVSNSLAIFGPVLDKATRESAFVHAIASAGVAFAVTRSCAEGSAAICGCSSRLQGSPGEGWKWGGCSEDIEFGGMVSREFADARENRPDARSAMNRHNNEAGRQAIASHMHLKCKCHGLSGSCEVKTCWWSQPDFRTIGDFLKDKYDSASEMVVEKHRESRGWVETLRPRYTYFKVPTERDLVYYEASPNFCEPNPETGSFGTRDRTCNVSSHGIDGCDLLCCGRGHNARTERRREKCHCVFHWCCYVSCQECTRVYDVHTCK

[30] = biological target: T5, Galanin receptor type 3 (Homo sapiens, UniProt O60755); assay: Fluorescence-based cell-based primary high throughput dose response assay to identify antagonists of the Galanin Receptor 3 (GalR3).; type: functional
T5 sequence (O60755 whole entry): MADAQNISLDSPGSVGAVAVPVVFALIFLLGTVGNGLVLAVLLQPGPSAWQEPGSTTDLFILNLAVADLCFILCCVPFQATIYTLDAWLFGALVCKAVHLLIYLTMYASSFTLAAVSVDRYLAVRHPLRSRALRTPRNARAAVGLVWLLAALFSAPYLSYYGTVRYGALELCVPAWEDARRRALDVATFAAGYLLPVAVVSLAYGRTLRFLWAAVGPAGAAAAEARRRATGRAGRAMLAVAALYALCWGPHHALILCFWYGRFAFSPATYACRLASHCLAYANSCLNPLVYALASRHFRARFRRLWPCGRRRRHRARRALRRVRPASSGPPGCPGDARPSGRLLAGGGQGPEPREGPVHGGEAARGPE

[31] = cells; type: functional, cell-based; conditions: HEK-CNG

COc1cc(/C=C2\COC/C(=C\c3ccc(O)c(OC)c3)C2=O)ccc1O
IC50 [1]: 1.15 µM (active) | IC50 [2]: > 25 µM (active) | CC50 [3]: 5.27 µM (active)

Cc1ccc(S(=O)(=O)Oc2ccc(C3C4=C(CCCC4=O)N(CCC(=O)O)C4=C3C(=O)CCC4)cc2Cl)cc1
IC50 [4]: 0.393 µM (active) | IC50 [5]: 14.6 µM (active) | AC50 [6]: 6.27 µM (active) | AC50 [7]: 11.4 µM (active)

CSc1ccccc1OCc1cc(C(=O)N2CCC(c3ccncc3)CC2)no1
EC50 [8]: 2.09 µM (active) | IC50 [9]: 3.97 µM (active) | IC50 [10]: 8.95 µM (active) | IC50 [11]: 5.04 µM (active) | IC50 [12]: 3.22 µM (active) | IC50 [13]: 3.18 µM (active) | IC50 [14]: 10.3 µM (inactive) | IC50 [15]: > 20 µM (inactive)

Cc1ccc(N2C(=O)c3cccnc3C2Nc2ccc(C)c(C)c2)cc1 (stereo unspecified)
IC50 [16]: > 80 µM (inactive) | IC50 [17]: > 80 µM (inactive)

c1cncc(CNc2cc(-c3ccc4c(c3)OCO4)ncn2)c1
AC50 [18]: 25.1 µM (inconclusive) | AC50 [19]: 5.2 µM (active) | AC50 [20]: 0.316 µM (inconclusive)

O=C(c1ccc(Cl)cc1)N1CCN(c2cc(C(F)(F)F)nc3ccccc23)CC1
AC50 [21]: 23.2 µM (active)

COc1ccc2c(c1)CCc1sc(NC(=O)c3ccco3)nc1-2
AC50 [22]: 2.01 µM (active)

O=S(=O)(O)C1CCNCC1
AC50 [23]: 22.4 µM (inconclusive) | AC50 [24]: inconclusive

CCCCOc1[nH]cnc2c3cc(F)ccc3nc1-2
IC50 [25]: 472 µM (not active) | AC50 [26]: > 195 µM (inactive) | AC50 [27]: 52.7 µM (active) | AC50 [28]: 4.34 µM (active) | IC50 [29]: 1.56 µM (active) | IC50 [30]: 2.19 µM (active) | EC50 [31]: > 29.9 µM (inactive)
